Experimental data as given in ChEMBL document CHEMBL4725365, “Modified tetra-oxygenated xanthones analogues as anti-MRSA and P. aeruginosa agent and their synergism with vancomycin” (2020).
In brackets after ≈: the same amount, converted by molar mass. Activity calls are given as the source filed them. The rule behind the calls is not given here.

Key:
[1] = system: Pseudomonas aeruginosa; experiment: Antibacterial activity against Pseudomonas aeruginosa; type: functional
[2] = system: Staphylococcus aureus; experiment: Antibacterial activity against methicillin-resistant Staphylococcus aureus ATCC 43300; type: functional
[3] = system: Enterococcus faecalis; experiment: Antibacterial activity against Enterococcus faecalis TISTR 459; type: functional
[4] = system: Shigella sonnei; experiment: Antibacterial activity against Shigella sonnei; type: functional
[5] = system: Bacillus subtilis; experiment: Antibacterial activity against Bacillus subtilis; type: functional
[6] = system: Enterococcus faecalis; experiment: Antibacterial activity against vancomycin-resistant Enterococcus faecalis ATCC 51299; type: functional
[7] = system: Salmonella typhi; experiment: Antibacterial activity against Salmonella typhi; type: functional, Salmonella enterica subsp. enterica serovar Typhi; conditions: Salmonella enterica
[8] = system: Staphylococcus aureus; experiment: Synergistic antibacterial activity against methicillin-resistant Staphylococcus aureus ATCC 43300 in presence of vancomycin; type: functional
[9] = system: Pseudomonas aeruginosa; experiment: Induction of morphological changes in Pseudomonas aeruginosa assessed as cell deformation incubated for 24 hrs by scanning electron microscopic method; type: functional, organism-based
[10] = system: Pseudomonas aeruginosa; experiment: Synergistic antibacterial activity against Pseudomonas aeruginosa in presence of vancomycin; type: functional
[11] = system: Staphylococcus aureus; experiment: Induction of morphological changes in methicillin-resistant Staphylococcus aureus ATCC 43300 assessed as cell deformation incubated for 24 hrs by scanning electron microscopic method; type: functional, organism-based
[12] = system: Pseudomonas aeruginosa; experiment: Synergistic antibacterial activity against Pseudomonas aeruginosa assessed as fractional inhibitory concentration index in presence of vancomycin; type: functional
[13] = system: Staphylococcus aureus; experiment: Synergistic antibacterial activity against methicillin-resistant Staphylococcus aureus ATCC 43300 assessed as fractional inhibitory concentration index in presence of vancomycin; type: functional
[14] = system: Staphylococcus aureus; experiment: Induction of morphological changes in methicillin-resistant Staphylococcus aureus ATCC 43300 assessed as cell deformation at MIC incubated for 24 hrs in presence of vancomycin by scanning electron microscopic method; type: functional, organism-based
[15] = system: Pseudomonas aeruginosa; experiment: Induction of morphological changes in Pseudomonas aeruginosa assessed as cell deformation incubated for 24 hrs in presence of vancomycin by scanning electron microscopic method; type: functional, organism-based

SMILES	MIC [1] [mg/L]	MIC [2] [mg/L]	MIC [3] [mg/L]	MIC [4] [mg/L]	MIC [5] [mg/L]	MIC [6] [mg/L]	MIC [7] [mg/L]	MIC [8] [mg/L]	Activity [9]	MIC [10] [mg/L]	Activity [11]	fractional inhibitory concentration index (FICI) [12]	fractional inhibitory concentration index (FICI) [13]	Activity [14]	Activity [15]
COc1cc2oc3cc(O)c(OC)c(CCC(C)(C)O)c3c(=O)c2c(O)c1CC=C(C)C	18.8 (≈ 42.4 µM)	18.8 (≈ 42.4 µM)	150 (≈ 339 µM)	300 (≈ 678 µM)	9.37 (≈ 21.2 µM)	> 300	300 (≈ 678 µM)	–	–	–	–	–	–	–	–
COc1c(O)cc2oc3cc4c(c(O)c3c(=O)c2c1CCC(C)(C)OC)CCC(C)(C)O4	75 (≈ 169 µM)	9.37 (≈ 21.2 µM)	> 300	300 (≈ 678 µM)	9.37 (≈ 21.2 µM)	> 300	300 (≈ 678 µM)	–	–	–	–	–	–	–	–
COc1c(OS(=O)(=O)c2ccc(Br)cc2)cc2oc3cc(OS(=O)(=O)c4ccc(Br)cc4)c(CC=C(C)C)c(O)c3c(=O)c2c1CC=C(C)C	300 (≈ 354 µM)	> 300	> 300	> 300	> 300	–	> 300	–	–	–	–	–	–	–	–
COc1cc2oc3cc(O)c(CC=C(C)C)c(O)c3c(=O)c2c(CC=C(C)C)c1OC	18.8 (≈ 44.2 µM)	18.8 (≈ 44.2 µM)	75 (≈ 177 µM)	150 (≈ 353 µM)	75 (≈ 177 µM)	–	150 (≈ 353 µM)	–	–	–	–	–	–	–	–
COc1cc2oc3cc(OC)c(OC)c(CC=C(C)C)c3c(=O)c2c(O)c1CC=C(C)C	300 (≈ 684 µM)	> 300	150 (≈ 342 µM)	> 300	75 (≈ 171 µM)	300 (≈ 684 µM)	300 (≈ 684 µM)	–	–	–	–	–	–	–	–
COc1cc2oc3cc(O)c(OC)c(CC=C(C)C)c3c(=O)c2c(O)c1CC=C(C)C	9.37 (≈ 22.1 µM)	4.68 (≈ 11 µM)	300 (≈ 707 µM)	> 300	2.34 (≈ 5.51 µM)	300 (≈ 707 µM)	> 300	–	–	–	–	–	–	–	–
COc1c(O)cc2oc3cc(O)c(CC=C(C)C)c(O)c3c(=O)c2c1CC=C(C)C [MANGOSTIN]	0.292 (≈ 0.713 µM)	0.585 (≈ 1.43 µM)	150 (≈ 365 µM)	150 (≈ 365 µM)	2.34 (≈ 5.7 µM)	150 (≈ 365 µM)	18.8 (≈ 45.7 µM)	0.877	Active	0.439	Active	0.187	0.375	–	–
COc1cc2oc3cc(O)c(OC)c(CCC(C)C)c3c(=O)c2c(O)c1CCC(C)C	150 (≈ 350 µM)	37.5 (≈ 87.5 µM)	75 (≈ 175 µM)	150 (≈ 350 µM)	150 (≈ 350 µM)	–	150 (≈ 350 µM)	–	–	–	–	–	–	–	–
CC(C)=CCc1c(O)cc2oc3cc(O)c(O)c(CC=C(C)C)c3c(=O)c2c1O	18.8 (≈ 47.3 µM)	4.68 (≈ 11.8 µM)	9.37 (≈ 23.6 µM)	18.8 (≈ 47.3 µM)	18.8 (≈ 47.3 µM)	–	18.8 (≈ 47.3 µM)	–	–	–	–	–	–	–	–
O=c1c2cc(O)c(O)cc2oc2cc(O)cc(O)c12	37.5 (≈ 144 µM)	18.8 (≈ 72.1 µM)	300 (≈ 1150 µM)	> 300	37.5 (≈ 144 µM)	> 300	> 300	–	–	–	–	–	–	–	–
COc1c(O)cc2oc3cc(O)c4c(c3c(=O)c2c1CCC(C)(C)O)OC(C)(C)CC4	300 (≈ 700 µM)	37.5 (≈ 87.5 µM)	> 300	300 (≈ 700 µM)	37.5 (≈ 87.5 µM)	> 300	300 (≈ 700 µM)	–	–	–	–	–	–	–	–
COc1c(OCC=C(C)C)cc2oc3cc(OCC=C(C)C)c(CC=C(C)C)c(O)c3c(=O)c2c1CC=C(C)C	300 (≈ 549 µM)	> 300	300 (≈ 549 µM)	> 300	> 300	–	> 300	–	–	–	–	–	–	–	–
COc1c(O)cc2oc3cc4c(c(O)c3c(=O)c2c1CCC(C)(C)O)CCC(C)(C)O4	75 (≈ 175 µM)	18.8 (≈ 43.8 µM)	> 300	300 (≈ 700 µM)	18.8 (≈ 43.8 µM)	> 300	150 (≈ 350 µM)	4.98	Active	9.52	Active	0.187	0.375	Active	Active
COc1cc2oc3cc(O)c(CC=C(C)C)c(O)c3c(=O)c2c(CC=C(C)C)c1O	4.67 (≈ 11.4 µM)	9.37 (≈ 22.8 µM)	75 (≈ 183 µM)	75 (≈ 183 µM)	75 (≈ 183 µM)	–	37.5 (≈ 91.4 µM)	–	–	–	–	–	–	–	–
COc1c(O)cc2oc3cc4c(c(O)c3c(=O)c2c1CC=C(C)C)CCC(C)(C)O4	2.34 (≈ 5.71 µM)	1.17 (≈ 2.85 µM)	> 300	300 (≈ 731 µM)	2.34 (≈ 5.7 µM)	> 300	300 (≈ 731 µM)	1.75	Active	2.63	Active	0.375	0.75	–	–
CN[C@H](CC(C)C)C(=O)N[C@H]1C(=O)N[C@@H](CC(N)=O)C(=O)N[C@H]2C(=O)N[C@H]3C(=O)N[C@H](C(=O)N[C@H](C(=O)O)c4cc(O)cc(O)c4-c4cc3ccc4O)[C@H](O)c3ccc(c(Cl)c3)Oc3cc2cc(c3O[C@@H]2O[C@H](CO)[C@@H](O)[C@H](O)[C@H]2O[C@H]2C[C@](C)(N)[C@H](O)[C@H](C)O2)Oc2ccc(cc2Cl)[C@H]1O [VANCOMYCIN]	2.34 (≈ 1.61 µM)	2.34 (≈ 1.61 µM)	2.34 (≈ 1.61 µM)	2.34 (≈ 1.61 µM)	2.34 (≈ 1.61 µM)	2.34 (≈ 1.61 µM)	2.34 (≈ 1.61 µM)	–	–	–	–	–	–	–	–
COc1cc2oc3cc(O)c(OC)c(CC=C(C)C)c3c(=O)c2c2c1CCC(C)(C)O2	300 (≈ 707 µM)	> 300	75 (≈ 177 µM)	300 (≈ 707 µM)	75 (≈ 177 µM)	150 (≈ 353 µM)	300 (≈ 707 µM)	–	–	–	–	–	–	–	–
COc1cc2oc3cc(O)c(OC)c(CCC(C)(C)O)c3c(=O)c2c2c1CCC(C)(C)O2	300 (≈ 678 µM)	150 (≈ 339 µM)	> 300	300 (≈ 678 µM)	150 (≈ 339 µM)	> 300	300 (≈ 678 µM)	–	–	–	–	–	–	–	–
COc1cc2oc3cc(O)c(O)c(CC=C(C)C)c3c(=O)c2c(O)c1CC=C(C)C	18.8 (≈ 45.7 µM)	9.37 (≈ 22.8 µM)	300 (≈ 731 µM)	150 (≈ 365 µM)	18.8 (≈ 45.7 µM)	300 (≈ 731 µM)	150 (≈ 365 µM)	–	–	–	–	–	–	–	–
COc1cc2oc3cc(O)c(OC)c(CCC(C)(C)OC(C)=O)c3c(=O)c2c2c1CCC(C)(C)O2	300 (≈ 619 µM)	> 300	> 300	300 (≈ 619 µM)	300 (≈ 619 µM)	> 300	300 (≈ 619 µM)	–	–	–	–	–	–	–	–
